Test results published in paper PMC6697720, “Saturation of acyl chains converts cardiolipin from an antagonist to an activator of Toll-like receptor-4” (Cellular and Molecular Life Sciences: CMLS, 2019).

Target: T1, human TLR4, MD2, and CD14 (Homo sapiens, UniProt O00206+Q9Y6Y9)
T1 construct: expressed in transfected cells; host or cells: HEK293 (ATCC CRL1573), transient transfection with jetPEI
Assay: NF-κB luciferase reporter activation by CLs in HEK293 cells transfected with human TLR4, MD2 and CD14
Assay type: cell-based
Conditions: for activation of human TLR4 (NF-κB): 6 h incubation
Protocol: Cells were seeded at 4 × 10^4 cells/mL in 96-well plates (200 μL/well) and transiently transfected 4 days later. Expression vectors containing an NF-κB transcription reporter vector-encoding firefly luciferase (10 ng/well pNF-κB-luc from Clontech), and a constitutively active reporter vector-encoding Renilla luciferase (5 ng/well phRG-TK; Promega), together with empty vector (pcDNA3.1 from Invitrogen Cat. N. V79020) and cDNA encoding human membrane CD14 (3 ng/well) and human or murine TLR4 and MD2 (3 ng/well) were mixed with jetPEI (Polyplus transfection Cat.N. 101-10N) and incubated with cells according to the manufacturer’s instructions.
After treatment supernatants were discarded, cells were washed with PBS and lysed with passive lysis buffer (Promega Cat.N. E1941). Luciferase and Renilla activity on cell lysates were quantified on a BioTek Synergy HT microplate reader using home-made luciferase reagent (20 mM Tricine, 2.67 mM MgSO4·7H2O, 0.265 mM (MgCO3)4Mg(OH)2·5H2O, 0.1 mM EDTA, 33.3 mM DTT, 530 μM ATP, 270 μM Acetyl Coenzyme A (Lithium salt), 470 μM luciferin (Biosynth), pH 7.8, diluted two times in water before use), or coelenterazine (Biosynth) dissolved in ethanol at 1 mg/mL and diluted 500 times in PBS before use as previously described. Firefly and Renilla luciferase activity on cell lysates were normalized, and data were expressed as fold induction as compared to unstimulated conditions.
The first signaling event of these pathways is NF-κB activation through TLR4 activation. To investigate how the individual CD14, TLR4, and MD2 proteins contribute to the responses of cells to CL, we used the HEK transfection model where we can control which protein (including from different species) may be added to the cells and their contribution to CL activation of Nf-κB [21, 30, 31]. We transfected HEK293 cells with human or murine CD14 and MD2 with or without TLR4 and incubated them with saturated CLs for 6 h (Fig. 4a). All three saturated CLs activated murine TLR4. By contrast, only C16:0 and C18:0 activated the human receptor. To further confirm the role of TLR4, we compared TNF-α secretion induced by C14:0 CL in wild-type (WT) or TLR4 knock out (TLR4 KO) immortalized BMDMs. Both LPS and C14:0 CL induced TNF-α secretion in WT but not in TLR4-KO BMDMs (Fig. 4b). TLR4-KO BMDMs were normally responsive to TLR2 ligand Pam3CSK4 (data not shown).
Fig. 4 Saturated CLs are TLR4 agonists. a HEK293 cells were transfected with plasmids encoding murine TLR4, MD2, and CD14 (mTLR4), human TLR4, MD2, and CD14 (hTLR4) or with empty pcDNA3.1 plasmid, MD2 and CD14 (w/o TLR) together with a luciferase reporter plasmid dependent on NF-κB activation and a constitutively active reporter vector-encoding renilla luciferase. Two days after transfection, cells were incubated for 6 h with medium alone (Ctrl) or the indicated amount of CLs or LPS. Luciferase and renilla were quantified in cell lysate, normalized and reported here as fold induction as compared to control. Unpaired t test: differences compared to the control are not significant if p > 0.05(no symbol); *p ≤ 0.005. b WT and TLR4-KO iBMDM cells were incubated overnight with medium (c), LPS or C14:0 CL. For each condition, mTNF-α was measured by ELISA assay. Unpaired t test: differences with respect to the control are not significant if p > 0.05(no symbol); *p ≤ 0.0001. Each bar represents the mean + standard deviation of three biological replicates (n = 3). […]

T1 sequence (O00206 24-839): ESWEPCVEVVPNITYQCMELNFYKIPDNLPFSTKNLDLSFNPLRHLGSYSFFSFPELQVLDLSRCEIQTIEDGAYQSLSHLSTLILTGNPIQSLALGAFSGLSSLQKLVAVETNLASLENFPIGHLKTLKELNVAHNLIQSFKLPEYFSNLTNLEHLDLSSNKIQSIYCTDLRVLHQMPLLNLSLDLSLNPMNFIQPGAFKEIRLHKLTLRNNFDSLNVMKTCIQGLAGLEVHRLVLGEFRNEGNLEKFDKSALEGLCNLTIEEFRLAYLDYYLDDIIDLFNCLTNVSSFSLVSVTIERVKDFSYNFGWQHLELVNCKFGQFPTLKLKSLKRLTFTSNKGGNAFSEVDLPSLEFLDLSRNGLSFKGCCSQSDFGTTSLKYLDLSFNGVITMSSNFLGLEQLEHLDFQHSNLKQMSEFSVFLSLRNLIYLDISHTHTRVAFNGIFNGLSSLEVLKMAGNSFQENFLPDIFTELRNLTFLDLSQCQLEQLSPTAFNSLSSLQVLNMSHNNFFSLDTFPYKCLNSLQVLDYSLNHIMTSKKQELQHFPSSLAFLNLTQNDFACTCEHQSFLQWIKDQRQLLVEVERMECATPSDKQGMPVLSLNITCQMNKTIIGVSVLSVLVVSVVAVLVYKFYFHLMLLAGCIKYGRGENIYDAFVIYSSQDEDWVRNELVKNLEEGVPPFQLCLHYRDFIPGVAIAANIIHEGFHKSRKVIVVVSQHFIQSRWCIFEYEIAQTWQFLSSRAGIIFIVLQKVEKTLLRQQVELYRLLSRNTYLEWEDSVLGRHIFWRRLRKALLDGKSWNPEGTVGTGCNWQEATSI
T1 sequence (Q9Y6Y9 19-160): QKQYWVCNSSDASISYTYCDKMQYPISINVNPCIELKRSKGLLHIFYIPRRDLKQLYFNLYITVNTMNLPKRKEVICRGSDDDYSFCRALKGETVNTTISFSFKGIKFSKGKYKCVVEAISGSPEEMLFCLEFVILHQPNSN

CCCCCCCCCCCCCC(=O)OC[C@H](COP(=O)(O)OCC(O)COP(=O)(O)OC[C@@H](COC(=O)CCCCCCCCCCCCC)OC(=O)CCCCCCCCCCCCC)OC(=O)CCCCCCCCCCCCC (stereo partly drawn) [C14:0 CL]
activation of human TLR4 (NF-κB): not

CCCCCCCCCCCCCCCCCC(=O)OC[C@H](COP(=O)(O)OCC(O)COP(=O)(O)OC[C@@H](COC(=O)CCCCCCCCCCCCCCCCC)OC(=O)CCCCCCCCCCCCCCCCC)OC(=O)CCCCCCCCCCCCCCCCC (stereo partly drawn) [C18:0 CL]
activation of human TLR4 (NF-κB): activated
NF-κB induction in HEK293 cells transfected with TLR4 in the absence of CD14 or MD2 (hTLR4 without CD14 or without MD2, 6 h): not induced
